Assay results reported in the supplement of paper PMC13380429.

Columns and labels:
Details in all cases: 72 h
[1] = tested on: Caco-2; test: cell viability relative to DMSO; higher = less toxic
[2] = tested on: HepG2; test: as above
[3] = tested on: U2OS; test: as above
[4] = tested on: Vero E6; test: as above
[5] = tested on: Caco-2; test: relative viability EC50 (midpoint between 100% and the lowest measured viability); higher = less toxic
[6] = tested on: HepG2; test: as above
[7] = tested on: U2OS; test: as above
[8] = tested on: Vero E6; test: as above
[9] = tested on: Caco-2; test: drug sensitivity score (DSS) for viability; higher = more toxic; extreme values may be limits of the assay
[10] = tested on: HepG2; test: as above
[11] = tested on: U2OS; test: as above
[12] = tested on: Vero E6; test: as above
[13] = tested on: Calu-3; test: cell viability relative to DMSO; higher = less toxic
[14] = tested on: Calu-3; test: drug sensitivity score (DSS) for viability; higher = more toxic; extreme values may be limits of the assay
[15] = tested on: Calu-3; test: relative viability EC50 (midpoint between 100% and the lowest measured viability); higher = less toxic

SMILES | cell viability ([1]; 1 nM) | cell viability ([1]; 10 nM) | cell viability ([1]; 100 nM) | cell viability ([1]; 1000 nM) | cell viability ([1]; 10000 nM) | cell viability ([2]; 1 nM) | cell viability ([2]; 10 nM) | cell viability ([2]; 100 nM) | cell viability ([2]; 1000 nM) | cell viability ([2]; 10000 nM) | cell viability ([3]; 1 nM) | cell viability ([3]; 10 nM) | cell viability ([3]; 100 nM) | cell viability ([3]; 1000 nM) | cell viability ([3]; 10000 nM) | cell viability ([4]; 1 nM) | cell viability ([4]; 10 nM) | cell viability ([4]; 100 nM) | cell viability ([4]; 1000 nM) | cell viability ([4]; 10000 nM) | relative viability EC50 [5] | relative viability EC50 [6] | relative viability EC50 [7] | relative viability EC50 [8] | drug sensitivity score [9] | drug sensitivity score [10] | drug sensitivity score [11] | drug sensitivity score [12] | cell viability ([13]; 1 nM) | cell viability ([13]; 10 nM) | cell viability ([13]; 100 nM) | cell viability ([13]; 1000 nM) | cell viability ([13]; 10000 nM) | drug sensitivity score [14] | relative viability EC50 [15]
Cn1cc(C(F)(F)F)nc1-c1ccc(OCC(O)CNCCOc2ccc(O)c(C(N)=O)c2)cc1 (stereo not given) | 102% | 96.6% | 102% | 98.7% | 87.4% | 111% | 97% | 122% | 94.3% | 114% | 98.7% | 100% | 94% | 101% | 98.1% | 104% | 96.4% | 102% | 90.1% | 95.7% | > 10 µM | > 10 µM | > 10 µM | > 10 µM | 0.2 | 0 | 0 | 0 |  |  |  |  |  |  | 
CC1(COc2ccc3c(c2)ncn3-c2ccc3cccc(N4CCC(N)CC4)c3n2)COC1 [crenolanib] | 101% | 97.1% | 102% | 112% | 94.5% | 107% | 103% | 107% | 101% | 9.5% | 106% | 102% | 106% | 101% | 9.4% | 102% | 104% | 101% | 102% | 22.6% | > 10 µM | 3.26 µM | 3.26 µM | 3.3 µM | 0 | 4.9 | 4.9 | 4.1 |  |  |  |  |  |  | 
COC(=O)/C=C/c1cc(O)ccc1O [erbstatin-analog] | 97.7% | 102% | 91.8% | 94.3% | 40.9% | 92% | 101% | 99.8% | 102% | 50% | 101% | 103% | 95.2% | 97.4% | 34.8% | 98.8% | 96.1% | 94.7% | 74.8% | 22.6% | 2.37 µM | 3.37 µM | 2.86 µM | 1.41 µM | 4.1 | 2.5 | 3.9 | 7.6 | 113% | 97.6% | 106% | 99.2% | 73.3% | 1.2 | 
COC(=O)N1CC[C@@H]2[C@H]1CCC[C@@]2(O)C#Cc1cccc(C)c1 [mavoglurant] | 110% | 120% | 100% | 98.4% | 108% | 102% | 107% | 95.5% | 91.8% | 114% | 103% | 99.9% | 102% | 101% | 95.8% | 104% | 101% | 106% | 104% | 97.4% | > 10 µM | > 10 µM | > 10 µM | > 10 µM | 0 | 0 | 0 | 0 |  |  |  |  |  |  | 
O=c1cccc2n1C[C@H]1C[C@@H]2CN(CCN2C[C@@H]3C[C@H](C2)c2cccc(=O)n2C3)C1 [CC4] | 98.2% | 100% | 91.4% | 93.1% | 98.3% | 91.3% | 91.9% | 93.9% | 97.4% | 93.4% |  |  |  |  |  | 97.4% | 94.6% | 98.8% | 92.8% | 101% | > 10 µM | > 10 µM |  | > 10 µM | 0 | 0 |  | 0 | 87.1% | 104% | 101% | 119% | 104% | 0 | > 10 µM
CSc1nc(N)cc(Oc2ccc(-c3nnc(Nc4cccc(C(F)(F)F)c4)[nH]3)cc2)n1 [KG-5] | 96.7% | 98.7% | 105% | 84.1% | 35.2% | 93.9% | 96% | 92.5% | 99.6% | 25.2% | 102% | 101% | 97.5% | 92.9% | 34.7% | 98.9% | 103% | 105% | 94.8% | 33.1% | 1.57 µM | 3.12 µM | 2.26 µM | 2.54 µM | 6 | 4.2 | 4.8 | 4.5 | 90.3% | 95.4% | 92.7% | 93.2% | 61.8% | 3 | 
CN1CCN(c2ccc(OC(F)(F)F)c(Nc3ncc4c(n3)-c3c(c(C(N)=O)nn3CCO)CC4)c2)CC1 | 104% | 94.9% | 77.3% | 52% | 62.3% | 105% | 95% | 70.4% | 16.7% | 15.8% | 108% | 103% | 98.2% | 46.5% | 41.3% | 102% | 112% | 99.7% | 52.4% | 48.3% |  | 0.139 µM | 0.394 µM | 0.395 µM | 11 | 18.8 | 10 | 8.8 | 100% | 105% | 78.7% | 84.9% | 84.7% | 5.1 | > 10 µM
CN(C(=O)CN(CCO)CC(=O)N(C)C(C)(C)Cc1ccccc1)C(C)(C)Cc1ccccc1 [oxethazaine] | 90.7% | 105% | 102% | 93.1% | 74.6% | 104% | 101% | 98.9% | 111% | 91.2% | 99.7% | 97.5% | 101% | 97.2% | 68.2% | 94.8% | 97.7% | 93.7% | 99.8% | 101% |  | > 10 µM |  | > 10 µM | 1.9 | 0 | 1.9 | 0 | 94.4% | 101% | 100% | 97.6% | 42.2% | 3.4 | 2.86 µM
CN(C)CCCN1c2ccccc2CCc2ccccc21 [imipramine] |  |  |  |  |  | 95.9% | 102% | 104% | 95.3% | 98.1% | 101% | 103% | 96% | 102% | 90.4% | 100% | 98.7% | 99.4% | 96.6% | 98.5% |  | > 10 µM | > 10 µM | > 10 µM |  | 0 | 0 | 0 | 88.8% | 105% | 96.1% | 108% | 94.3% | 0 | > 10 µM
O=c1cc(-c2cccc3c2Sc2ccccc2S3)oc(N2CCOCC2)c1 | 103% | 102% | 98.2% | 93.3% | 67.8% | 104% | 102% | 93.5% | 108% | 85.9% | 99.8% | 99.6% | 102% | 100% | 93.3% | 97.5% | 102% | 101% | 106% | 83.3% |  | > 10 µM | > 10 µM | > 10 µM | 2.5 | 0.1 | 0 | 0.2 | 100% | 98.9% | 98.2% | 104% | 106% | 0 | > 10 µM
C[C@@H]1CN(Cc2ccc(F)cc2)CCN1C(=O)COc1ccc(Cl)cc1NC(N)=O | 98.2% | 95.7% | 92.9% | 81.3% | 66.6% | 93.3% | 101% | 87.7% | 51.9% | 19.1% | 103% | 96.1% | 99.3% | 95% | 72.8% | 103% | 113% | 93.3% | 104% | 93% |  | 0.635 µM |  | > 10 µM | 3.6 | 10.8 | 1.9 | 0 | 97.1% | 104% | 98.1% | 104% | 85% | 0.1 | > 10 µM
Nc1nccc2c1ncn2[C@@H]1O[C@H](CO)[C@@H](O)[C@@H]1O [3-deazaadenosine] | 89.8% | 101% | 97.9% | 89.2% | 97% | 97.9% | 103% | 95.6% | 97.3% | 96.1% | 99.9% | 99.4% | 97.7% | 103% | 95.8% | 87.4% | 100% | 90.8% | 92.8% | 95.1% | > 10 µM | > 10 µM | > 10 µM | > 10 µM | 0 | 0 | 0 | 0 |  |  |  |  |  |  | 
